Test results as given in the NIST ThermoML archive (doi:10.1016/j.fluid.2017.06.018).

Columns and labels:
[1] = xn = mol fraction of the nth substance listed; conditions: 100 kPa, Liquid; for viscosity: Falling or rolling sphere viscometry; for mass density: Vibrating tube method
[2] = refractive index (Na D-line) (dimensionless); xn = mol fraction of the nth substance listed; conditions: 100 kPa, Liquid, Standard Abbe refractometry

NCCNCCO [N-(2-aminoethyl)ethanolamine] + NCCO
Conditions | mass density, 298.15 K [kg/m3] | mass density, 303.15 K [kg/m3] | mass density, 308.15 K [kg/m3] | refractive index, 298.15 K | refractive index, 303.15 K | refractive index, 308.15 K | viscosity, 298.15 K [mPa·s] | viscosity, 303.15 K [mPa·s] | viscosity, 308.15 K [mPa·s]
[1], x2 = 0 | 1025.8 | 1021.3 | 1016.3 | – | – | – | 98.62 | 70.57 | 53.11
[1], x2 = 0.1072 | 1025.7 | 1021.4 | 1016.6 | – | – | – | 95.09 | 69.25 | 52.77
[1], x2 = 0.2634 | 1025.2 | 1020.9 | 1016.2 | – | – | – | 90.58 | 67.59 | 52.68
[1], x2 = 0.4233 | 1024.4 | 1020.2 | 1015.7 | – | – | – | 78.29 | 59.5 | 46.92
[1], x2 = 0.5481 | 1023.4 | 1019.3 | 1014.9 | – | – | – | 64.72 | 48.92 | 38.49
[1], x2 = 0.6305 | 1022.5 | 1018.4 | 1014.1 | – | – | – | 53.12 | 39.84 | 31.01
[1], x2 = 0.6851 | 1021.7 | 1017.6 | 1013.4 | – | – | – | 44.75 | 32.81 | 25.15
[1], x2 = 0.7988 | 1019.4 | 1015.5 | 1011.4 | – | – | – | 27.93 | 20.04 | 14.71
[1], x2 = 0.8459 | 1018.2 | 1014.3 | 1010.3 | – | – | – | 22.36 | 15.94 | 11.31
[1], x2 = 0.9377 | 1015.2 | 1011.4 | 1007.5 | – | – | – | 17.18 | 12.82 | 9.55
[2], x2 = 0 | – | – | – | 1.4843 | 1.4827 | 1.4811 | – | – | –
[2], x2 = 0.1005 | – | – | – | 1.4824 | 1.481 | 1.4796 | – | – | –
[2], x2 = 0.1993 | – | – | – | 1.4799 | 1.4785 | 1.4771 | – | – | –
[2], x2 = 0.299 | – | – | – | 1.4774 | 1.476 | 1.4745 | – | – | –
[2], x2 = 0.4047 | – | – | – | 1.4742 | 1.4728 | 1.4715 | – | – | –
[2], x2 = 0.5033 | – | – | – | 1.4714 | 1.47 | 1.4685 | – | – | –
[2], x2 = 0.5985 | – | – | – | 1.4683 | 1.4668 | 1.4652 | – | – | –
[2], x2 = 0.6981 | – | – | – | 1.4647 | 1.4633 | 1.462 | – | – | –
[2], x2 = 0.7985 | – | – | – | 1.4611 | 1.4598 | 1.4585 | – | – | –
[2], x2 = 0.8996 | – | – | – | 1.4573 | 1.4559 | 1.4545 | – | – | –

NCCNCCN [di(2-aminoethyl)amine] + NCCO
Conditions | mass density, 298.15 K [kg/m3] | mass density, 303.15 K [kg/m3] | mass density, 308.15 K [kg/m3] | refractive index, 298.15 K | refractive index, 303.15 K | refractive index, 308.15 K | viscosity, 298.15 K [mPa·s] | viscosity, 303.15 K [mPa·s] | viscosity, 308.15 K [mPa·s]
[1], x2 = 0 | 945.8 | 942.1 | 937.8 | – | – | – | 5.63 | 4.5 | 3.85
[1], x2 = 0.1619 | 956.5 | 953.1 | 949.1 | – | – | – | 8.28 | 6.59 | 5.38
[1], x2 = 0.2973 | 964.6 | 961.1 | 957.1 | – | – | – | 10.37 | 8.33 | 6.68
[1], x2 = 0.4258 | 972.6 | 969 | 965.3 | – | – | – | 12.15 | 9.76 | 7.8
[1], x2 = 0.5307 | 979.4 | 975.9 | 972.3 | – | – | – | 13.87 | 11.18 | 8.89
[1], x2 = 0.6308 | 986.3 | 982.8 | 979.2 | – | – | – | 15.47 | 12.48 | 9.99
[1], x2 = 0.7174 | 992.7 | 989.2 | 985.6 | – | – | – | 16.82 | 13.6 | 10.89
[1], x2 = 0.798 | 998.7 | 995.5 | 992 | – | – | – | 18.22 | 14.73 | 11.84
[1], x2 = 0.879 | 1005.1 | 1001.7 | 998.5 | – | – | – | 19.23 | 15.49 | 12.42
[1], x2 = 0.9336 | 1008.9 | 1005.6 | 1002.4 | – | – | – | 19.31 | 15.49 | 12.34
[2], x2 = 0 | – | – | – | 1.4822 | 1.4808 | 1.4793 | – | – | –
[2], x2 = 0.0989 | – | – | – | 1.4815 | 1.4802 | 1.4791 | – | – | –
[2], x2 = 0.2021 | – | – | – | 1.4806 | 1.4791 | 1.4778 | – | – | –
[2], x2 = 0.3013 | – | – | – | 1.4794 | 1.4778 | 1.4765 | – | – | –
[2], x2 = 0.4007 | – | – | – | 1.4778 | 1.4764 | 1.4752 | – | – | –
[2], x2 = 0.4984 | – | – | – | 1.4758 | 1.4743 | 1.4729 | – | – | –
[2], x2 = 0.6007 | – | – | – | 1.4731 | 1.4717 | 1.4703 | – | – | –
[2], x2 = 0.7027 | – | – | – | 1.4696 | 1.4683 | 1.467 | – | – | –
[2], x2 = 0.8002 | – | – | – | 1.4657 | 1.4643 | 1.4631 | – | – | –
[2], x2 = 0.8987 | – | – | – | 1.4608 | 1.4591 | 1.4577 | – | – | –
